In patent US20250144250A1, “PH-SENSITIVE FLUOROPHORES” (The General Hospital Corporation, priority 2022, published 2025):

What was measured:
ID8 cells = assay: Subcellular localization (co-localization with MitoTracker, LysoTracker, NucBlue); format: cell-based, murine; settings: 10 μM, 30 min incubation
Method: FIG. 3 Subcellular localization of pH sensing NIR fluorophores: (a) Subcellular localization of each probe (10 μM) in ID8 cells was determined after 30 min of incubation at 37° C. Nuclei, mitochondria, and lysosomes were stained with NucBlue, MitoTracker Green, or LysoTracker Red, respectively. Representative fluorescence images of cells. Scale bar=20 μm. (b) Co-localization index of each probe with MitoTracker Green or LysoTracker Red. The index was calculated by dividing the area of overlap between pH probe and MitoTracker or LysoTracker by the total area of MitoTracker or LysoTracker, respectively. The co-localization index was determined in 5-6 photographic areas (70×92 μm^2 each) for each probe. *P<0.05 by two-way ANOVA followed by Tukey's multiple comparisons test. Error bars show means±s.d.
Live-cell labeling and in vitro imaging: Murine ovarian cancer cells (ID8 cells) were obtained from Dr. Wang's lab in the Vincent Center for Reproductive Biology at Massachusetts General Hospital (MGH). Cells were cultured and maintained in Dulbecco's modified Eagle's medium (DMEM) supplemented with 4% FBS (Gibco, Grand Island, NY), 1% insulin-transferrin-selenium (Sigma-Aldrich), and 1% penicillin-streptomycin (Gibco). Cells were plated in a T-75 culture flask until 70% confluency before dividing for the next passage. For fluorophore binding affinity, ID8 cells were incubated at a density of 20,000 cells/well in a 24-well plate in a humidified incubator at 37° C. under 5% CO2 in the air. Cells were then incubated at 37° C. for 30 min in the presence of 0.2 μM of PH03 or PH08 and phenol red-free Hank's balanced salt solution (HBSS) with or without 10% FBS. […] Image acquisition and analysis were performed using IPLab software (Scanalytics, Fairfax, VA), and the fluorescent intensity of each cell was measured using ImageJ (National Institutes of Health, Bethesda, MD). The outline of each cell was determined on a phase-contrast image to specify the region of interest (ROI) and superimposed on a fluorescence image for measurements. All NIR fluorescence images for each fluorophore were normalized identically for all conditions during an experiment. […]
Subcellular distribution of pH sensing NIR fluorophores: To investigate the fate of the NIR fluorophores after uptake by cells, we performed in vitro live-cell imaging and evaluated subcellular localization of the NIR fluorophores in cultured ID8 ovarian cancer cells. PH03 and PH08 were incubated with ID8 cells for 30 min followed by double staining with commercially available MitoTracker or LysoTracker Green and imaged under the house-built NIR fluorescence microscope. […]

[1] = system: peritoneal dissemination of ID8 ovarian cancer; assay: Preclinical intraoperative fluorescence-guided surgery; format: in vivo, mice; settings: FGS 4 h post-injection, 20 nmol
Method: Preclinical intraoperative fluorescence-guided surgery: We performed preclinical fluorescence-guided surgery (FGS) in mice with peritoneal dissemination of ID8 ovarian cancer using the FLARE imaging system. We injected 20 nmol of PH08 in 100 μL of 5% wt/v BSA/saline into the mouse intraperitoneally 4 h prior to the surgery. The abdominal cavity was opened with a midline incision under isoflurane inhalational anesthesia. The entire abdominal cavity was examined carefully by a surgeon using color and fluorescent imaging on the FLARE imaging system. Peritoneal dissemination was resected under white light assisted with the color and fluorescent images.
Evaluation of in vivo efficacy of NIR fluorophores for fluorescence-guided surgery (FGS): Having confirmed the pH sensitivity and tumor cell uptake of PH08 in vitro, we next evaluated the in vivo performance of the pH sensing NIR fluorophores in a mouse model of ovarian cancer. […] In this model, approximately 12 week post-peritoneal injection of ID8 cells, numerous nodules were observed on the peritoneum. These small nodules (<1 mm) are extremely difficult to localize and visualize in the surgical field. Thus, this model was suitable to test the performance of this fluorophore. […] The signal of PH08 allowed for clear visualization of the lesions that measured 5 mm or less than 1 mm in diameter. […]

SMILES	overlap of fluorescence signal with LysoTracker (lysosome) (ID8 cells) [%]	overlap of fluorescence signal with MitoTracker (mitochondria) (ID8 cells) [%]	outcome of FGS [1]
CCN1/C(=C/C=C2\CCCC(/C=C/C3=[N+](CC)c4ccccc4C3(C)C)=C2c2ccccc2)C(C)(C)c2ccccc21 [PH03, 1-Ethyl-2-((E)-2-((E)-6-(2-((E)-1-ethyl-3,3-dimethylindolin-2-ylidene)ethylidene)-3,4,5,6-tetrahydro-[1,1′-biphenyl]-2-yl)vinyl)-3,3-dimethyl-3H-indol-1-ium iodide]	34.93	91.47	
CCN1/C(=C/C=C2\CCCC(/C=C/C3=[N+](CC)c4ccccc4C3(C)C)=C2N2CCNCC2)C(C)(C)c2ccccc21 [PH08]	71.83	83.05	complete resection of metastatic nodules
